Laboratory results reported in ChEMBL document CHEMBL1201862, “PubChem BioAssay data set” (2004).
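All cell lines were grown in 96-well plates and treated with compound for 48 hours. The concentration for 50% growth inhibition is given as GI50.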 The source made the active and inactive calls. No stated cut-off is given here; in the data, active = GI50 up to about 1.1 µM and inactive = higher.

Experiments:
Assay in all cases: NCI tumour cell line growth inhibition, 48 h
SF-295 = test system: SF-295
NCI-H23 = test system: NCI-H23
NCI-H460 = test system: NCI-H460
Hs-578T = test system: Hs-578T
NCI/ADR-RES = test system: NCI/ADR-RES
UACC-62 = test system: UACC-62
MDA-MB-231 = test system: MDA-MB-231
SK-OV-3 = test system: SK-OV-3
MDA-MB-435 = test system: MDA-MB-435
NCI-H226 = test system: NCI-H226
RXF 393 = test system: RXF 393
RPMI-8226 = test system: RPMI-8226
CCRF-CEM = test system: CCRF-CEM
SK-MEL-2 = test system: SK-MEL-2
IGROV-1 = test system: IGROV-1
SF-268 = test system: SF-268
SN12C = test system: SN12C
SK-MEL-5 = test system: SK-MEL-5
CAKI-1 = test system: CAKI-1

Row | Compound | GI50 (SF-295) | GI50 (NCI-H23) | GI50 (NCI-H460) | GI50 (Hs-578T) | GI50 (NCI/ADR-RES) | GI50 (UACC-62) | GI50 (MDA-MB-231) | GI50 (SK-OV-3) | GI50 (MDA-MB-435) | GI50 (NCI-H226) | GI50 (RXF 393) | GI50 (RPMI-8226) | GI50 (CCRF-CEM) | GI50 (SK-MEL-2) | GI50 (IGROV-1) | GI50 (SF-268) | GI50 (SN12C) | GI50 (SK-MEL-5) | GI50 (CAKI-1)
1 | O=C(CCc1ccc(O)c(O)c1)NCCc1cc(O)c(O)c(O)c1 | 19 µM (inactive) | 15.8 µM (inactive) | 20.6 µM (inactive) | 78.3 µM (inactive) | 18.1 µM (inactive) | 90.8 µM (inactive) | 14.5 µM (inactive) | > 100 µM (inactive) | 17.6 µM (inactive) | 34.3 µM (inactive) | 66.7 µM (inactive) | 36.7 µM (inactive) | 44.5 µM (inactive) | 21.8 µM (inactive) | 54.1 µM (inactive) | 41.1 µM (inactive) | 17.9 µM (inactive) | 23.3 µM (inactive) | 
2 | Cc1cccc(C[C@@]2(SCc3ccccc3)C(C)(C)[C@@H]3CC[C@@]2(C)C3)n1 | 14 µM (inactive) | 13.9 µM (inactive) | 15.6 µM (inactive) | 19.7 µM (inactive) | 13.8 µM (inactive) | 13.7 µM (inactive) | 14 µM (inactive) | 20.4 µM (inactive) | 24 µM (inactive) |  | 16.3 µM (inactive) | 11.8 µM (inactive) | 12.9 µM (inactive) | 13.9 µM (inactive) | 15.1 µM (inactive) | 16.1 µM (inactive) | 16.3 µM (inactive) | 15.9 µM (inactive) | 16.7 µM (inactive)
3 | C#CCOCn1ccc(=O)[nH]c1=O | > 100 µM (inactive) | > 100 µM (inactive) | > 100 µM (inactive) | > 100 µM (inactive) | > 100 µM (inactive) | > 100 µM (inactive) | > 100 µM (inactive) | > 100 µM (inactive) | > 100 µM (inactive) | > 100 µM (inactive) |  | > 100 µM (inactive) | > 100 µM (inactive) | > 100 µM (inactive) | > 100 µM (inactive) | > 100 µM (inactive) | > 100 µM (inactive) | > 100 µM (inactive) | > 100 µM (inactive)
4 | CC(=O)N1CCn2c1nc1cc(Cl)ccc12 | 47.8 µM (inactive) |  | 77.6 µM (inactive) | 31.4 µM (inactive) | > 100 µM (inactive) | 33.5 µM (inactive) | 34.5 µM (inactive) | 25.1 µM (inactive) | > 100 µM (inactive) | 94.8 µM (inactive) | 20.8 µM (inactive) |  | > 100 µM (inactive) | 26.1 µM (inactive) | 37.6 µM (inactive) | 32.2 µM (inactive) | > 100 µM (inactive) | > 100 µM (inactive) | > 100 µM (inactive)
5 | CC(C)(O)CO/N=C1\C(=C2\C(=O)Nc3ccccc32)Nc2ccccc21 | 2.52 µM (inactive) | 1.18 µM (inactive) | 0.395 µM (active) | 0.867 µM (active) | 1.33 µM (inactive) | 0.728 µM (active) | 2.01 µM (inactive) | 0.158 µM (active) | 0.794 µM (active) |  | 0.279 µM (active) | 1.97 µM (inactive) | 0.435 µM (active) | 0.232 µM (active) | 0.0895 µM (active) | 2.33 µM (inactive) | 12 µM (inactive) | 0.423 µM (active) | 0.112 µM (active)
6 | CC1=CCCC(C)(O)C2CC(CCC3(C)OC3CC1)C(C)C(=O)O2 (stereo not drawn) | > 100 µM (inactive) | > 100 µM (inactive) | > 100 µM (inactive) | > 100 µM (inactive) | > 100 µM (inactive) | > 100 µM (inactive) | > 100 µM (inactive) | > 100 µM (inactive) | > 100 µM (inactive) | > 100 µM (inactive) |  | > 100 µM (inactive) | > 100 µM (inactive) | > 100 µM (inactive) | > 100 µM (inactive) | > 100 µM (inactive) | > 100 µM (inactive) | > 100 µM (inactive) | > 100 µM (inactive)
7 | CCCCCN1C(=O)C(Cc2ccccc2)N=C(c2ccc(O)cc2)c2cc(Cl)ccc21 (stereo not drawn) | 6.93 µM (inactive) | 4.98 µM (inactive) | 7.73 µM (inactive) | 7.53 µM (inactive) | 8.11 µM (inactive) | 10.3 µM (inactive) | 17.3 µM (inactive) | 18.6 µM (inactive) | 9.53 µM (inactive) | 7.43 µM (inactive) |  | 2.9 µM (inactive) | 12.2 µM (inactive) | 14.6 µM (inactive) | 6.73 µM (inactive) | 8.73 µM (inactive) | > 20.7 µM (inactive) |  | 13.8 µM (inactive)
8 | C[N+](C)(C)c1nc(N)nc2c1ncn2C1OC(CO)C(O)C1O (stereo not drawn) |  | > 100 µM (inactive) | > 100 µM (inactive) | > 100 µM (inactive) | > 100 µM (inactive) | > 100 µM (inactive) | > 100 µM (inactive) | > 100 µM (inactive) | > 100 µM (inactive) |  | > 100 µM (inactive) | > 100 µM (inactive) | 3.08 µM (inactive) | > 100 µM (inactive) | > 100 µM (inactive) | > 100 µM (inactive) | > 100 µM (inactive) | > 100 µM (inactive) | > 100 µM (inactive)
9 | O=C1CSC(=O)/C1=C\NNc1nc2ccccc2o1 | 19.9 µM (inactive) | 24.5 µM (inactive) | 23.8 µM (inactive) | 52.7 µM (inactive) | 12.5 µM (inactive) | 18 µM (inactive) | 30.9 µM (inactive) | 32.3 µM (inactive) | 65.9 µM (inactive) | 36 µM (inactive) | 21.8 µM (inactive) |  | 1.09 µM (active) | 37.2 µM (inactive) |  | 30.5 µM (inactive) | 29.6 µM (inactive) | 14.4 µM (inactive) | 23.9 µM (inactive)
10 | Cc1cc2c(c(C)c1O)C(C)(C)CN2C(=O)C(C)(C)C | > 100 µM (inactive) | 42.5 µM (inactive) | > 100 µM (inactive) | > 100 µM (inactive) | 16.5 µM (inactive) | > 100 µM (inactive) | 86.9 µM (inactive) | > 100 µM (inactive) | 56 µM (inactive) | 26.1 µM (inactive) | 22.7 µM (inactive) | > 100 µM (inactive) | 77.6 µM (inactive) |  | > 100 µM (inactive) | > 100 µM (inactive) | > 100 µM (inactive) | 25.1 µM (inactive) | 
11 | COc1ccc(-c2nnc3n(Cc4ccccc4)c4ccccc4n3c2=O)cc1 | 15.9 µM (inactive) | 31.3 µM (inactive) | 33.5 µM (inactive) | 22.1 µM (inactive) | 55.8 µM (inactive) |  | 26.1 µM (inactive) |  | 4.76 µM (inactive) | 17.4 µM (inactive) | 26.8 µM (inactive) |  | > 100 µM (inactive) | 14.8 µM (inactive) | 13.3 µM (inactive) | 22.7 µM (inactive) | 55 µM (inactive) | 53.5 µM (inactive) | 13.9 µM (inactive)
12 | COc1cccc(/C=C2\CCCc3ccccc3C2=O)c1 | 14.9 µM (inactive) | 15.1 µM (inactive) | 14.5 µM (inactive) | 17.9 µM (inactive) | 17.9 µM (inactive) | 12.9 µM (inactive) | 13.8 µM (inactive) | 30.5 µM (inactive) | 10.1 µM (inactive) | 18.8 µM (inactive) |  | 6.35 µM (inactive) | 12.3 µM (inactive) | 13.8 µM (inactive) | 17.9 µM (inactive) | 10 µM (inactive) | 16.1 µM (inactive) |  | 23.4 µM (inactive)
